Source: patent US20250034620A1 (priority 2022, published 2025)
Where “and” joins values, the source holds several entries; their conditions need not be identical. Identical values can stand only once.

Biological target: H.c.LSU group II intron
Type: biochemical, Histoplasma capsulatum
Conditions: logistic fit of kobs against 14 inhibitor concentrations, 5 nM to 300 μM; MB18 readout; 37° C.; read-out: KI (inhibition constant) of the self-splicing reaction

With O=C1c2c(O)ccc(O)c2C(=O)c2c(NCCNCCO)ccc(NCCNCCO)c21 [mitoxantrone] the Ki was 1790 nM and 2240 nM.
